Read-outs that look alike come from different tables or passages of the source.
Columns and labels:
METTL3/METTL14 = METTL3/METTL14 (Homo sapiens, UniProt Q86U44); assay: METTL3-14 Standard Enzyme Assay (METTL3 biochemical assay)
Method in brief: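 Tritium transfer from ³H-SAM (100 nM) to biotinylated RNA (100 nM) captured on streptavidin flashplates and counted by scintillation. Enzyme complex (2.5 nM) with compound, 5 min preincubation, 30 min reaction at ambient temperature, HEPES pH 7.5 buffer, stopped by excess unlabeled SAM.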

PRMT5-MEP50 = PRMT5-MEP50 (Homo sapiens, UniProt O14744); assay: PRMT5 Assay (PRMT5 biochemical assay)
Sequence of PRMT5-MEP50 (O14744 whole entry): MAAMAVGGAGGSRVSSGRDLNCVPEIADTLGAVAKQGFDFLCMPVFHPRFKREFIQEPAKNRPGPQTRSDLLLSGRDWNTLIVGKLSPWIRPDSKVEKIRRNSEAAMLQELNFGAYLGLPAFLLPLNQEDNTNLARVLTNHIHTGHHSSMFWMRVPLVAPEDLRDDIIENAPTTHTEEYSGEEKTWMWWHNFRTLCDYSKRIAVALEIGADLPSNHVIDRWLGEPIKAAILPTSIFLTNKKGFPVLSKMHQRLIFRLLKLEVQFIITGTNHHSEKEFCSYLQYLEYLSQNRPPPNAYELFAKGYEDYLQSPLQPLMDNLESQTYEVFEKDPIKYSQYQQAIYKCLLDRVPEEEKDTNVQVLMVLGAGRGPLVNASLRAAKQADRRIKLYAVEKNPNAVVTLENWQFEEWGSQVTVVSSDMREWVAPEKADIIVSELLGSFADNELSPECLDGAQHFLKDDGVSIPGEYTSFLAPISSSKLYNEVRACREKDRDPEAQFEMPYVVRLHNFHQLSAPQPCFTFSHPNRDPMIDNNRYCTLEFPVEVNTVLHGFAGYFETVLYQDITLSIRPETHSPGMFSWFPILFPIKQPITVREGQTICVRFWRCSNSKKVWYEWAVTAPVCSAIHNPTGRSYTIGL
Sequence of PRMT5-MEP50 (Q9BQA1 whole entry partner): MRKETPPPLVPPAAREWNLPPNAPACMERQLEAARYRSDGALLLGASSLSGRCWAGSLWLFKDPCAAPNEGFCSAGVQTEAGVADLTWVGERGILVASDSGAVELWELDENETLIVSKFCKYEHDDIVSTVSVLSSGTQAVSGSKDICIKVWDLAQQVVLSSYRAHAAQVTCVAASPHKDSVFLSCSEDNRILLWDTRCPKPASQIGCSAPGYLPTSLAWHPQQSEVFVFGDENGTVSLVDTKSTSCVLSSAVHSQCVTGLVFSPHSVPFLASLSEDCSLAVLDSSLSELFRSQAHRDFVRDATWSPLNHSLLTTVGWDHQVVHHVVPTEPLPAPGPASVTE
Method in brief: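 Radiometric methyltransferase read-out: after 60 min reaction, excess unlabelled SAM (15 μM) stops turnover and biotinylated H4 peptide (100 nM) carrying 3H-methyl from 250 nM 3H-SAM is captured on streptavidin flashplates (2 h, 25° C) for scintillation counting. Enzyme, 2.5 nM PRMT5-MEP50, was preincubated 5 min with compound in pH 8.0 Tris buffer with DTT and Tween.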

MOLM-13 cells [1] = assay: MOLM-13 96 Hour Cell Proliferation Assay; format: cell-based
Procedure: MOLM-13 (DSMZ) cells were seeded at 600 cells per well in a volume of 44 μL in a Greiner Bio-One CELLSTAR™ 384 Well Polystyrene Cell Culture clear bottom microplate in RPMI 1640 media containing 10% fetal bovine serum using a Multidrop Combi (ThermoFisher Scientific). Cells were incubated overnight at 37° C. in a humidified tissue culture incubator. To prevent evaporation or to reduce edge effect, add 50 μL or more H2O to an empty plate, cover, and place on top of the cell plates. The Mosquito® HTS Liquid Handler was used to make a compound/media intermediate plate by aliquoting 1 μL of compound from the initial compound dilution plate (concentrations ranging from 10.0 mM to 38.0 nM in 100% DMSO) into Bio-One 384-well polypropylene conical bottom microplate containing 49 μL of media containing the appropriate serum (50-fold dilution, 2% DMSO, compound concentrations ranging from 200.0 μM and […]). The Apricot liquid handling system was used to transfer 6.2 μL compounds from the intermediate plate into the seeding plate containing 44 μL cells (8-fold dilution spanning concentrations 25.0 μM to […], 0.25% DMSO final), and placed in a humidified tissue culture incubator at 37° C. After 96 hours, 25 μL of Cell Titer-Glo reagent (Promega) was added to each well using an Integra liquid handling system. The plate was protected from light using TopSeal-A (Black) film over the entire plate, added White Bottom seal film on the bottom of the entire plate for a better reading on the Envision, and placed on an IKA plate shaker for at 300 rpm for 10 minutes at room temperature. The plate was read on an EnVision plate reader (Perkin Elmer) using the Ultra Sensitive Luminescence protocol. Data analysis was performed by normalizing the raw luminescence units to an average of the positive control values for staurosporine (100% cell death) and the negative control values for DMSO (0% cell death). An IC50 was calculated using a 4-parameter logistic nonlinear regression model in GraphPad Prism.

METTL1/WDR4 = METTL1/WDR4 (Homo sapiens, UniProt Q9UBP6); assay: METTL1 Assay (METTL1 biochemical assay)
Sequence of METTL1/WDR4 (Q9UBP6 whole entry, species assumed): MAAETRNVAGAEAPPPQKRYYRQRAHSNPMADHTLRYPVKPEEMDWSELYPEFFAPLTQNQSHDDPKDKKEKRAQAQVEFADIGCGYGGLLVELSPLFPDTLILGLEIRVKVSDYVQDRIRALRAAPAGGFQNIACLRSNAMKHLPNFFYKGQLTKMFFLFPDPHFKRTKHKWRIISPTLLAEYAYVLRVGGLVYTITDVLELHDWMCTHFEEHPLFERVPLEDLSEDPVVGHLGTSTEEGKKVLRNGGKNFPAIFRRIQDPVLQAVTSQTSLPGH
Sequence of METTL1/WDR4 (P57081 whole entry partner, species assumed): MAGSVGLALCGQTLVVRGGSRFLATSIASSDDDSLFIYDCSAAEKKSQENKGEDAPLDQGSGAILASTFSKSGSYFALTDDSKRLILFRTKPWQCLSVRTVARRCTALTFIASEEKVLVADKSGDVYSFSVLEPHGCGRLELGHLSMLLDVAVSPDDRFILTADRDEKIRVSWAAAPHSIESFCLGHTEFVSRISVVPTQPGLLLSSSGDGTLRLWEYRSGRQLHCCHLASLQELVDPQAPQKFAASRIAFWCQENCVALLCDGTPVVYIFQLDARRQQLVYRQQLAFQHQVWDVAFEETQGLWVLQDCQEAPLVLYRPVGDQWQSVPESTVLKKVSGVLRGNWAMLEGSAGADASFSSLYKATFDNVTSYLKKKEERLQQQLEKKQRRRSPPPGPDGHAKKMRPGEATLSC
Procedure: Assays were performed in a 25 μl-volume in 384-well V-bottom polypropylene microplates (Greiner Bio-One, cat. No. 781280) at ambient temperature. Optimized 1× assay buffer was 20 mM HEPES pH 7.5, 50 mM KCl, 250 μM MgCl2, 1 mM DTT, 0.01% Tween, 0.01% BSG, 0.004 U/μl RNAseOUT (cat. No. 10777019, ThermoFisher Scientific, Waltham, Mass.). For compound screening METTL1/WDR4 (final concentration, f.c.=6.25 nM) was added using a Multidrop Combi (ThermoFisher Scientific, Waltham, Mass.) and preincubated for 5 min. Reactions were started by adding 3′ biotinylated RNA ([…]-biotin) (f.c.=25 nM) and 3H-SAM (f.c.=60 nM) substrates. Reactions proceeded for 20 minutes and were quenched with excess non-radioactive SAM (f.c.=15 μM). The reactions were then transferred to streptavidin-coated flashplates and incubated for 2 hours at 25° C. Following two washing cycles with 0.1% Tween-20, the plates were sealed and read on a TopCount (PerkinElmer, Waltham, Mass.) plate-based scintillation counter. For determination of kinetic parameters, reaction times were optimized so that measurements were taken during the initial velocity phase of the reaction.

MOLM-13 cells [2] = assay: MOLM-13 48 Hour Cell Proliferation Assay; format: cell-based
Procedure: MOLM-13 (DSMZ) cells were seeded at 1000 cells per well in a volume of 44 μL in a Falcon 384-well tissue culture treated clear bottom microplate in RPMI 1640 media containing 10% fetal bovine serum using a Multidrop Combi (ThermoFisher Scientific). Cells were incubated overnight at 37° C. in a humidified tissue culture incubator. The Mosquito® HTS Liquid Handler was used to make a compound/media intermediate plate by aliquoting 1 μL of compound from the initial compound dilution plate (concentrations ranging from 10.0 mM to 38.0 nM in 100% DMSO) into a V bottom 384-well screen matrix plate containing 49 μL of media containing the appropriate serum (50-fold dilution, 2% DMSO). The Apricot liquid handling system was used to transfer 6.2 μL compounds from the intermediate plate into the Falcon 384-well tissue culture plate containing 44 μL cells (10-point, 4-fold dilution spanning concentrations 25.0 μM to […], 0.25% DMSO final), and placed in a humidified tissue culture incubator at 37° C. After 48 hours, 25 μL of Cell Titer-Glo reagent (Promega) was added to each well using a Multidrop Combi. The plate was protected from light and placed on an IKA plate shaker for at 300 rpm for 10 minutes at room temperature. The plate was read on an EnVision plate reader (Perkin Elmer) using the Ultra Sensitive Luminescence protocol. Data analysis was performed by normalizing the raw luminescence units to an average of the positive control values for staurosporine (100% cell death) and the negative control values for DMSO (0% cell death). An IC50 was calculated using a 4-parameter logistic nonlinear regression model in GraphPad Prism.

[3] = METTL3 biochemical assay, read-out: METTL3 IC50
[4] = read-out: METTL1 IC50, METTL1 biochemical assay
[5] = PRMT5 biochemical assay, read-out: PRMT5 IC50
[6] = METTL1 biochemical assay, read-out: METTL1 IC50
[7] = read-out: METTL3 IC50, METTL3 biochemical assay
[8] = read-out: PRMT5 IC50, PRMT5 biochemical assay

Sequence of METTL3/METTL14 (Q86U44 whole entry, species assumed): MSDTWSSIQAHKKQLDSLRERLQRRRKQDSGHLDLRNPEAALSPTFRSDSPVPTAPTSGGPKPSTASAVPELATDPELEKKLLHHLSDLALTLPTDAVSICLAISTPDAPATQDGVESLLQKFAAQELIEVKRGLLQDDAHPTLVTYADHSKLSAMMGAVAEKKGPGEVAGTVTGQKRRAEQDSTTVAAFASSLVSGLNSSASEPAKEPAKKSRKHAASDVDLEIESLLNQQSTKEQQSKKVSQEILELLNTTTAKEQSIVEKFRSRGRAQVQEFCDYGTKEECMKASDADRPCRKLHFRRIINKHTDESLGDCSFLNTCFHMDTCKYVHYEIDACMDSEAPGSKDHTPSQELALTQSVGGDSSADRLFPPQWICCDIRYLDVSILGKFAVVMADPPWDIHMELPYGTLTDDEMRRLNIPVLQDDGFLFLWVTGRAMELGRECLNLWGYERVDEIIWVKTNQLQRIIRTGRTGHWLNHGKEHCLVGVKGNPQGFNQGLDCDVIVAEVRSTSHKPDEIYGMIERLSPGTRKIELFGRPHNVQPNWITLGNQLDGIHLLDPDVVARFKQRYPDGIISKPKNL
Sequence of METTL3/METTL14 (Q9HCE5 whole entry partner, species assumed): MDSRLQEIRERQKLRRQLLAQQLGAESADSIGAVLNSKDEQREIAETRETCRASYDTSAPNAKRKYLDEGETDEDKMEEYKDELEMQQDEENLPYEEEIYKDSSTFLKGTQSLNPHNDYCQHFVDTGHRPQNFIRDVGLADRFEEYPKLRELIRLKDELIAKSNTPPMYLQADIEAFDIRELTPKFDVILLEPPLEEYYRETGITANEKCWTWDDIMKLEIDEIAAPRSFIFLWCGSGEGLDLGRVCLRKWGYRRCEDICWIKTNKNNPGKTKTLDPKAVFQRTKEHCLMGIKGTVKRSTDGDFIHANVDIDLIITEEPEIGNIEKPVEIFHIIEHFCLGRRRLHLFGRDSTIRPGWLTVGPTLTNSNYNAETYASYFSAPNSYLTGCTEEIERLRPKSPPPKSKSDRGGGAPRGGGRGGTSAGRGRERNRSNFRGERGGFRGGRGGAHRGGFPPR

Row | SMILES | IC50 (METTL3/METTL14) | IC50 (PRMT5-MEP50) | IC50 (MOLM-13 cells [1]; Homo sapiens) | IC50 (METTL3/METTL14; [3]) | IC50 (PRMT5-MEP50; [5]) | IC50 (MOLM-13 cells [2]; Homo sapiens) | further results
1 | Cn1ccc(-c2cn([C@@H]3C[C@H](CCc4ccc5ccc(N6CCC6)nc5c4)[C@@H](O)[C@@H]3F)c3ncnc(N)c23)n1 [I-211] | < 0.01 µM | > 1 µM | < 1 µM |  |  |  | 
2 | CNc1ccc2cc(CC[C@H]3C[C@@H](n4ccc5c(N)ncnc54)[C@H](O)[C@@H]3O)ccc2n1 [I-111] |  |  |  | 0.1 to 1 µM | < 0.01 µM |  | IC50 (METTL1/WDR4; [4]): > 1 µM; IC50 (MOLM-13 cells [1]; Homo sapiens, MOLM-13, 96 h): 1 to 10 µM
3 | CNc1ccc2ccc(OC[C@H]3O[C@@H](n4cc(-c5cccc(C)n5)c5c(N)ncnc54)[C@@H](F)[C@@H]3O)cc2n1 [I-229] | < 0.01 µM | 0.01 to 0.1 µM |  |  |  | 1 to 10 µM | IC50 (METTL1/WDR4; [6]): > 1 µM
4 | CCc1cc(NCCOC)c2ncc(OC[C@H]3O[C@@H](n4cc(-c5ccn(C)n5)c5c(N)ncnc54)[C@H](O)[C@@H]3O)cc2n1 [I-159] | < 0.01 µM |  | 1 to 10 µM |  |  | > 10 µM | 
5 | CNc1ccc2ccc(OC[C@H]3O[C@@H](n4cc(-c5ccn(C6CCC6)n5)c5c(N)ncnc54)[C@@H](F)[C@@H]3O)cc2n1 [I-143] |  |  |  | < 0.01 µM | 0.1 to 1 µM | 1 to 10 µM | IC50 (METTL1/WDR4; [6]): > 1 µM
6 | CNc1ccc2ccc(OC[C@H]3O[C@@H](n4cc(-c5ccn(C(C)C)n5)c5c(N)ncnc54)[C@@H](F)[C@@H]3O)cc2n1 [I-2] |  |  | < 1 µM |  |  |  | IC50 (METTL3/METTL14; [7]): < 0.01 µM; IC50 (PRMT5-MEP50; [8]): 0.1 to 1 µM
7 | Nc1ccc2cc(CC[C@H]3C[C@@H](n4ccc5c(N)ncnc54)[C@H](O)[C@@H]3O)ccc2n1 [I-125] |  |  |  | 0.1 to 1 µM | < 0.01 µM |  | IC50 (METTL1/WDR4; [4]): > 1 µM; IC50 (MOLM-13 cells [1]; Homo sapiens, MOLM-13, 96 h): 1 to 10 µM
8 | Nc1ncnc2c1c([C@H]1CCCO1)cn2[C@@H]1O[C@H](COc2ccc3ccc(N4CCC4)nc3c2)[C@@H](O)[C@@H]1F [I-225] |  |  |  |  | > 1 µM |  | IC50 (MOLM-13 cells [2]): 1 to 10 µM; IC50 (MOLM-13 cells [1]): 1 to 10 µM
9 | CNc1ccc2sc(CC[C@H]3O[C@@H](n4cc(-c5ccn(C)n5)c5c(N)ncnc54)[C@@H](F)[C@@H]3O)cc2n1 [I-190] | < 0.01 µM | 0.01 to 0.1 µM | < 1 µM |  |  |  | 
10 | CCn1ccc(-c2cn([C@@H]3O[C@H](COc4ccc5ccc(NC)nc5c4)[C@@H](O)[C@@H]3F)c3ncnc(N)c23)n1 [I-3] |  |  | < 1 µM |  |  |  | IC50 (METTL3/METTL14; [7]): < 0.01 µM; IC50 (PRMT5-MEP50; [8]): 0.01 to 0.1 µM
11 | C=CCc1cn([C@@H]2O[C@H](COc3ccc4ccc(NC)nc4c3)[C@@H](O)[C@H]2O)c2ncnc(N)c12 [I-226] |  |  |  | < 0.01 µM | < 0.01 µM | < 1 µM | IC50 (METTL1/WDR4): > 1 µM
12 | CCc1cc(N(C)CC2CC2)c2ccc(OC[C@H]3O[C@@H](n4cc(-c5ccn(C)n5)c5c(N)ncnc54)[C@@H](F)[C@@H]3O)cc2n1 [I-155] | < 0.01 µM |  | < 1 µM |  |  | 1 to 10 µM | 
13 | CNc1ccc2ccc(OC[C@H]3O[C@@H](n4cc(-c5ccc(C)cn5)c5c(N)ncnc54)[C@@H](F)[C@@H]3O)cc2n1 [I-231] | < 0.01 µM | 0.1 to 1 µM |  |  |  | < 1 µM | IC50 (METTL1/WDR4; [6]): > 1 µM
